Source: patent publication US3974184A, “Microbial production of certain isoflavones” (Zaidan Hojin Biseibutsu Kagaku Kenkyu Kai, priority 1973, dated 1976)
Where two headings read alike, the source gives them in different places.

Columns and labels:
[1] = target: T1, catechol-O-methyl transferase (COMT) (Rattus norvegicus, UniProt P22734); experiment: Inhibition of catechol-O-methyl transferase (formation of tritium metanephrine); assay type: biochemical
T1 sequence (P22734 1-221 isoform P22734-2): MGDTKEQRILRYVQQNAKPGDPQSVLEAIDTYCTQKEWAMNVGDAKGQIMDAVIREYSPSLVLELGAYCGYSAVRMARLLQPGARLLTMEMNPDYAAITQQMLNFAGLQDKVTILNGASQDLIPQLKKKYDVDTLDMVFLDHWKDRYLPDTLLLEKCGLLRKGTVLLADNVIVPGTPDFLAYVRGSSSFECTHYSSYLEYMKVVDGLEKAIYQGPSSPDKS
Description: The compounds (I), (II) and (III) can be determined by measuring inhibition of COMT. The activity of COMT is measured in accordance with the method reported by B. Nikodejevic et al. (Ref. "The Journal of Pharmacology and Experimental Therapeutics", Vol. 174, pp. 83-93, by B. Nikodejevic et al., 1970). 0.5 cc total volume of reaction liquid is prepared from 0.125 cc of water, 0.05 cc of 0.1 mole phosphate buffer solution (pH 8.0), 0.1 cc of 0.1 mole magnesium chloride solution, 0.05 cc. of 0.05 mole adrenaline solution, 0.075 cc of 0.5 millimole tritium-8-adenosyl methionine aqueous solution (2.2 × 10^5 cpm), 0.05 cc of sample solution and 0.05 cc of enzyme solution. These solutions are mixed together at 0° C. and, after reacting for 20 minutes at 37° C., 1 cc of 0.5 mole boric acid buffer solution (pH 10.0) is added to stop the reaction. Then, tritium metanephrine (^3 H-metanephrine) wherein the meta-hydroxyl group has been methylated is extracted with a solvent mixture such as toluene-isoamyl alcohol (3:2). A quantity of solvent portion is then sampled and its radioactivity is measured by use of a liquid scintillation counter. The thusly obtained measurement of radioactivity tells the quantity of formed metanephrine, which in turn permits one to determine the inhibition.

DOPA decarboxylase = target: T2, DOPA decarboxylase (Homo sapiens, UniProt P20711); experiment: Inhibition of DOPA decarboxylase (method of Davis and Awapara); assay type: biochemical; settings: for inhibiting action against DOPA decarboxylase: in words; for IC50: read-out: concentration for 50% inhibition of DOPA decarboxylase (converted)
T2 sequence (P20711 1-480): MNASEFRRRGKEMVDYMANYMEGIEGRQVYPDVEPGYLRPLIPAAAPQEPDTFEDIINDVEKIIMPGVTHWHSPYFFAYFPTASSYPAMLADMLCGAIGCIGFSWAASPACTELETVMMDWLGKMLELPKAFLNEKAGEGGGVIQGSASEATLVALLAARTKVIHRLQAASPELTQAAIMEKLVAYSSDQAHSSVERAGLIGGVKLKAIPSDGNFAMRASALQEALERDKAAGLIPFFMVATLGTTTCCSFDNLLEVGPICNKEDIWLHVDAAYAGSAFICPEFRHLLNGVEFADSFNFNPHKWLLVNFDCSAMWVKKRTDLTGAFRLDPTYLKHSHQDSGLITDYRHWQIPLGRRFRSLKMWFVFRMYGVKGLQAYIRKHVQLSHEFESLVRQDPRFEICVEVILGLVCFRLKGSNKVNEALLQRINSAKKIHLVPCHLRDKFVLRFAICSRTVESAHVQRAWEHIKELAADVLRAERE
Description: It has been reported heretofore that an inhibitor against COMT delays the metabolism or rate of destruction of adrenaline, noradrenaline, etc. in the human body and, therefore, serves to prolong and promote their blood pressure elevating action. These inhibitors may also be used as curative or palliative medicines for diseases such as depression which is considered to be caused when catechol amines present in the human body are reduced in quantity. There has been much argument about etiological causes of schizophrenia. One hypothesis says that the schizophrenia is caused by the production of abnormally methylated bioamines (methylated catechol amines and serotonin) within the brain. Especially, hallucination of schizophrenia is said to be caused by abnormally methylated catechol amines (Ref. "Amines and Schizophrenia" by H. E. Himwich, S. S. Kety and J. R. Smythies, 1967, Pergamon Press, Oxford). The inhibitors of COMT may therefore be used as curative medicines for schizophrenia and for the associated hallucination. On the other hand, the anti-hemochlasis of isoflavones has been reported by Murata and Ikehata ("Agr. Biol. Chem." Vol. 32, No. 6, 1968, pp. 740-746) and the cholesterol deposition preventing action of isoflavones has been reported by G. W. Moersch, D. F. Morrow and W. A. Neuklis ("J. Med. Chem." 10(2), 1967, pp. 154-158). […] It will therefore be possible to use the compounds (I), (II) and (III) as curative medicines for diseases such as hypertension and arteriosclerosis and also as economizers in combination with DOPA for treating Parkinson's disease. […] This means that there is a possibility to use the compounds (I) and (II) as curative medicines for inflammation and allergy in man.

bacteria = experiment: Inhibiting action against growth of bacteria; assay type: cell-based; settings: at 100 .nu./cc
[2] = isolated compounds, read-out: concentration inhibiting the activity of COMT by 50% (converted)
[3] = powders from silica gel fractions, Example 1, read-out: concentration showing 50% inhibition against COMT (converted)

Compound: COc1ccc(-c2coc3c(OC)c(O)cc(O)c3c2=O)cc1O [Compound (II), 3',5,7-trihydroxy-4',8-dimethoxy-isoflavone]
- IC50 [1, 2]: 15.1 µM
- IC50 [1, 3]: 236 µM
- inhibiting action against DOPA decarboxylase (DOPA decarboxylase): powerful inhibiting action
- IC50 (DOPA decarboxylase): 15.1 µM
- inhibiting action against the growth of bacteria (bacteria): no inhibiting action

Compound: COc1ccc(-c2coc3c(OC)c(O)c(OC)cc3c2=O)cc1O [Compound (III), 3',7-dihydroxy-4',6,8-trimethoxy-isoflavone]
- selectivity for COMT against the other enzymes ([1]; in words, other enzymes: tyrosine hydroxylase, dopamin-β-hydroxylase, DOPA decarboxylase, histidine decarboxylase): inhibiting action only against COMT and not against the other enzymes
- IC50 [1, 2]: 0.581 µM
- IC50 [1, 3]: 14.5 µM
- inhibition of DOPA decarboxylase (DOPA decarboxylase; at a concentration as high as 100 .nu./cc): no inhibition
- inhibiting action against DOPA decarboxylase (DOPA decarboxylase): no inhibiting action
- inhibiting action against the growth of bacteria (bacteria): no inhibiting action

Compound: COc1ccc(-c2coc3cc(O)c(OC)c(O)c3c2=O)cc1O [Compound (I), 3',5,7-trihydroxy-4',6-dimethoxy-isoflavone]
- inhibiting action against DOPA decarboxylase (DOPA decarboxylase): powerful inhibiting action
- IC50 (DOPA decarboxylase): 37.8 µM
- inhibiting action against the growth of bacteria (bacteria): no inhibiting action
